Each compound was assayed against T1, hPR (Homo sapiens, UniProt P06401) (assay: hPR cotransfection assay in CV-1 cells, agonist mode). Conditions: Tables 3 and 4, values without footnote; read-out: hPR agonist potencies (EC50 in nM) in the cotransfection assay.
T1 sequence (P06401 1-933): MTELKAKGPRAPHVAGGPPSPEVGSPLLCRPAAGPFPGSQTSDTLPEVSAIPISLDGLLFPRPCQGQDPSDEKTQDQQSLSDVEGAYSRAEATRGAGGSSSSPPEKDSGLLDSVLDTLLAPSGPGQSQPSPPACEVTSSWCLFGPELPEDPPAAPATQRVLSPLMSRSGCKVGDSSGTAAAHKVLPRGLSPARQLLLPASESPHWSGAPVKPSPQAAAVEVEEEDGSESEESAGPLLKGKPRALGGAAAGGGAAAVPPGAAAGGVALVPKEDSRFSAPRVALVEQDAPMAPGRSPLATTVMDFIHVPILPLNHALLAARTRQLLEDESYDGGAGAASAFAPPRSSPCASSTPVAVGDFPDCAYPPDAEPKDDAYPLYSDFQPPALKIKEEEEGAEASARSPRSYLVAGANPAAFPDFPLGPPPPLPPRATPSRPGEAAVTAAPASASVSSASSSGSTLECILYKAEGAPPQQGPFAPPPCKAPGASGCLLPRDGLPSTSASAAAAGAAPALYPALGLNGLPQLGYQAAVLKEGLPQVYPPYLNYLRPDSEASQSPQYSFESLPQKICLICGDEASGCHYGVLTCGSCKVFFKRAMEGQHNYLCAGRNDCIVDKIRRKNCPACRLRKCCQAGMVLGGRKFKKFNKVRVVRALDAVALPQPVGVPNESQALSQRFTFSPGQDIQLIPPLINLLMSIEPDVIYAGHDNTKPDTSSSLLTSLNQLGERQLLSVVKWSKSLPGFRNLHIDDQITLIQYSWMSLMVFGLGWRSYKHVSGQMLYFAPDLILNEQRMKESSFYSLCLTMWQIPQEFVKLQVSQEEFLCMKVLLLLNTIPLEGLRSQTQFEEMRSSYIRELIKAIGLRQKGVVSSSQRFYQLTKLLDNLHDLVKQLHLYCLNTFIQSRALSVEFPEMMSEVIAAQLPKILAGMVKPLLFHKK
Type: cell-based

| EC50 | SMILES |
| --- | --- |
| 44 nM | CC1=CC(C)(C)Nc2ccc3c(c21)C(c1cccc(C)c1)Oc1ccc(C)cc1-3 (stereo not shown) [Formula I X=9-Me 3-Me-Ph, reference compound] |
| 45 nM | COc1ccc2c(c1)O/C(=C\c1ccccc1F)c1c-2ccc2c1C(C)=CC(C)(C)N2 [Formula II X=8-OMe 2-F-Ph, reference compound] |
| 3.6 nM | C=CCC1Oc2c(F)cc(F)cc2-c2ccc3c(c21)C(C)=CC(C)(C)N3 (racemic) [Compound 55, (±)-7,9-difluoro-5-allyl-1,2-dihydro-2,2,4-trimethyl-5H-chromeno[3,4-f]quinoline] |
| 11.6 nM | CC1=CC(C)(C)Nc2ccc3c(c21)/C(=C/c1cccc(F)c1)Oc1ccc(Cl)cc1-3 [Formula II X=9-Cl 3-F-Ph, reference compound] |
| 1.66 nM | CC1=CC(C)(C)Nc2ccc3c(c21)/C(=C/c1ccccc1C)Oc1c(F)cc(F)cc1-3 [Compound 81, 7,9-difluoro-5(Z)-(2-methylbenzylidene)-1,2-dihydro-2,2,4-trimethyl-5H-chromeno[3,4-f]quinoline] |
| 9 nM | CCC1Oc2ccc(F)cc2-c2ccc3c(c21)C(C)=CC(C)(C)N3 (stereo not shown) [Formula I X=9-F Et, reference compound] |
| 3.7 nM | CC1=CC(C)(C)Nc2ccc3c(c21)/C(=C/c1ccc(F)cc1)Oc1c(F)cc(F)cc1-3 [Compound 16, 7,9-difluoro-5(Z)-(4-fluorobenzylidene)-1,2-dihydro-2,2,4-trimethyl-5H-chromeno[3,4-f]quinoline] |
| 4.96 nM | CC1=CC(C)(C)Nc2ccc3c(c21)C(c1ccc(Br)cc1)Oc1c(F)cc(F)cc1-3 (racemic) [Compound 36, (±)-7,9-difluoro-5-(4-bromophenyl)-1,2-dihydro-2,2,4-trimethyl-5H-chromeno[3,4-f]quinoline] |
| 5.75 nM | CC1=CC(C)(C)Nc2ccc3c(c21)/C(=C/c1cccc(F)c1)Oc1ccc(O)cc1-3 [Formula II X=9-OH 3-F-Ph, reference compound] |
| 9.3 nM | CC1=CC(C)(C)Nc2ccc3c(c21)/C(=C/c1ccccc1C)Oc1ccc(O)cc1-3 [Formula II X=9-OH 2-Me-Ph, reference compound] |
| 7.4 nM | CC1=CC(C)(C)Nc2ccc3c(c21)C(c1cccc(C(F)(F)F)c1)Oc1ccc(Cl)cc1-3 (stereo not shown) [Formula I X=9-Cl 3-CF3-Ph, reference compound] |
| 24 nM | COc1ccc2c(c1)O/C(=C\c1ccccc1OC)c1c-2ccc2c1C(C)=CC(C)(C)N2 [Formula II X=8-OMe 2-MeO-Ph, reference compound] |
| 4.85 nM | CC1=CC(C)(C)Nc2ccc3c(c21)C(c1cccc(Cl)c1)Oc1ccc(C)cc1-3 (stereo not shown) [Formula I X=9-Me 3-Cl-Ph, reference compound] |
| 6.24 nM | CC1=CC(C)(C)Nc2ccc3c(c21)/C(=C/c1ccccc1)Oc1ccc(Cl)cc1-3 [Formula II X=9-Cl Phenyl, reference compound] |
| 10 nM | CC1=CC(C)(C)Nc2ccc3c(c21)/C(=C/c1cc(F)ccc1F)Oc1ccc(O)cc1-3 [Formula II X=9-OH 2,5-diF-Ph, reference compound] |
| 7.3 nM | CC1=CC(C)(C)Nc2ccc3c(c21)/C(=C/c1ccccc1F)Oc1ccc(F)cc1-3 [Formula II X=9-F 2-F-Ph, reference compound] |
| 8.6 nM | COc1ccc2c(c1)O/C(=C\c1cccc(F)c1)c1c-2ccc2c1C(C)=CC(C)(C)N2 [Formula II X=8-OMe 3-F-Ph, reference compound] |
| 8.5 nM | CC1=CC(C)(C)Nc2ccc3c(c21)/C(=C/c1ccccc1C)Oc1ccc(Cl)cc1-3 [Formula II X=9-Cl 2-Me-Ph, reference compound] |
| 13 nM | CC1=CC(C)(C)Nc2ccc3c(c21)/C(=C/c1ccccc1C)Oc1cc(F)ccc1-3 [Formula II X=8-F 2-Me-Ph, reference compound] |

| EC50 | SMILES |
| --- | --- |
| 109 nM | CC1=CC(C)(C)Nc2ccc3c(c21)/C(=C/c1cccc(F)c1)Oc1cc(F)ccc1-3 [Formula II X=8-F 3-F-Ph, reference compound] |
| 24 nM | COc1ccc2c(c1)O/C(=C\c1ccncc1C)c1c-2ccc2c1C(C)=CC(C)(C)N2 [Formula II X=8-OMe 3-Me-4-pyridinyl, reference compound] |
| 9.4 nM | CC1=CC(C)(C)Nc2ccc3c(c21)C(c1ccc(Cl)c(C)c1)Oc1ccc(Cl)cc1-3 (stereo not shown) [Formula I X=9-Cl 4-Cl-3-Me-Ph, reference compound] |
| 7.5 nM | C=CCC1Oc2ccc(F)cc2-c2ccc3c(c21)C(C)=CC(C)(C)N3 (stereo not shown) [Formula I X=9-F Allyl, reference compound] |
| 8.4 nM | CC1=CC(C)(C)Nc2ccc3c(c21)/C(=C/c1cccc(F)c1C)Oc1ccc(F)cc1-3 [Formula II X=9-F 2-Me-3-F-Ph, reference compound] |
| 67.5 nM | COc1ccc2c(c1)-c1ccc3c(c1/C(=C/c1ccccc1C)O2)C(C)=CC(C)(C)N3 [Formula II X=9-OMe 2-Me-Ph, reference compound] |
| 0.9 nM | COc1ccc(F)cc1/C=C1\Oc2ccc(F)cc2-c2ccc3c(c21)C(C)=CC(C)(C)N3 [Formula II X=9-F 2-MeO-5-F-Ph, reference compound] |
| 0.93 nM | COc1ccccc1/C=C1\Oc2ccc(F)cc2-c2ccc3c(c21)C(C)=CC(C)(C)N3 [Formula II X=9-F 2-MeO-Ph, reference compound] |
| 5.1 nM | CC1=CC(C)(C)Nc2ccc3c(c21)C(c1ccc(Cl)cc1)Oc1c(F)cc(F)cc1-3 (racemic) [Compound 43, (±)-7,9-difluoro-5-(4-chlorophenyl)-1,2-dihydro-2,2,4-trimethyl-5H-chromeno[3,4-f]quinoline] |
| 2.1 nM | CC1=CC(C)(C)Nc2ccc3c(c21)/C(=C/c1cc(F)ccc1C)Oc1ccc(Cl)cc1-3 [Formula II X=9-Cl 2-Me-5-F-Ph, reference compound] |
| 54.4 nM | CC1=CC(C)(C)Nc2ccc3c(c21)/C(=C/c1ccccc1)Oc1ccc(O)cc1-3 [Formula II X=9-OH Phenyl, reference compound] |
| 3.95 nM | CC1=CC(C)(C)Nc2ccc3c(c21)/C(=C/c1ccc(F)cc1)Oc1ccc(F)cc1-3 [Formula II X=9-F 4-F-Ph, reference compound] |
| 6.93 nM | CCC1Oc2c(F)cc(F)cc2-c2ccc3c(c21)C(C)=CC(C)(C)N3 (racemic) [Compound 46, (±)-7,9-difluoro-5-ethyl-1,2-dihydro-2,2,4-trimethyl-5H-chromeno[3,4-f]quinoline] |
| 2 nM | CC1=CC(C)(C)Nc2ccc3c(c21)/C(=C/c1ccncc1C)Oc1ccc(F)cc1-3 [Formula II X=9-F 3-Me-4-pyridinyl, reference compound] |
| 145 nM | CC1=CC(C)(C)Nc2ccc3c(c21)C(c1cccc(C)c1)Oc1ccccc1-3 (stereo not shown) [Formula I X=H 3-Me-Ph, reference compound] |
| 2.1 nM | CC1=CC(C)(C)Nc2ccc3c(c21)/C(=C/c1cc(F)ccc1C)Oc1ccc(F)cc1-3 [Formula II X=9-F 2-Me-5-F-Ph, reference compound] |
| 26.5 nM | CC1=CC(C)(C)Nc2ccc3c(c21)/C(=C/c1ccccc1F)Oc1ccc(Cl)cc1-3 [Formula II X=9-Cl 2-F-Ph, reference compound] |
| 36 nM | COc1ccc2c(c1)O/C(=C\c1ccncc1)c1c-2ccc2c1C(C)=CC(C)(C)N2 [Formula II X=8-OMe 4-pyridinyl, reference compound] |

— patent US7163946B2 (Ligand Pharmaceuticals Incorporated, priority 2002, dated 2007)
